Measured values from US10195226B2, “Medicinal carbohydrates for treatment of respiratory conditions” (Australian Biomedical Company Pty Ltd., priority 2009, dated 2019).
Like-named read-outs stand apart in the source and are kept apart here.

Legend:
Balb-C mice [1] = assay: Tolerance study on Balb-C mice; assay type: in vivo
Description: (§1) Compounds of Formula (1) and/or (2) have been tested for safety by the applicants. For example, Compounds (1) and (2) were used in a tolerance and subchronic toxicity study on Balb-C mice (AEC Approval Code: BAM/B/2005/16).

Balb-C mice [2] = assay: Subchronic toxicity study on Balb-C mice; assay type: in vivo
Description: as §1

male Hartley guinea pigs = assay: Guinea pig cough model (neuraminidase aerosol, citric acid challenge); assay type: in vivo; details: for Restoration of respiratory tract damages caused by neuraminidase: guinea pig cough model, oral dose of 500 mg/kg/day×3 days, result in words, 500 mg/kg/day
Procedure: A guinea pig cough model was also established by the applicants. Compounds (1) and (2) were tested in this model. […] These in vivo results are in line with the in vitro data. Thus, both the efficacy and safety data support compounds of Formula (1) and/or (2) and particularly compounds (1) and (2) may be useful for medicinal applications.
Male guinea pigs were housed in pens and have access to water and food ad libitum. This study was approved by Bio21 Institute Animal Ethics Committee.
Twenty four Conscious male Hartley guinea pigs (500˜550 g) were divided into A, B, C three groups (8 animals for each group), and pretreated with either 5 units/ml solution of neuraminidase (Sigma N2133, lyophilized powder, Type X, 150˜400 units/mg protein) in water (group B and C) or saline alone (Group A) via an aerosol for 5 minutes on day one. Then, on day one, two and three, the guinea pigs were either orally administered with 500 mg/kg of compound (1) (Group C), or water alone (Group A and B). On day four, all the animals were challenged with 0.5M citric acid solution (nebulised, 10 minutes exposure). The cough frequency, times to the 1st, 2nd and third cough, and times to the 1st nose rubs were then recorded over a period of 15 minutes.

[3] = mammals, reference [8]; cited from earlier work
[4] = test system: Small Airway Epithelial Cells (SAEC); details: SAEC pretreated with neuraminidase, 24 h, control (treated with neuraminidase) = 100%, mean ± SEM, n = 3
[5] = test system: Normal Human Bronchial/Tracheal Epithelial Cells (NHBE); details: NHBE pretreated with neuraminidase, 24 h, control (treated with neuraminidase) = 100%, mean ± SEM, n = 3
mucocilliary transport = details: reference [6]; result in words; cited from earlier work
rabbits = details: pre-treatment with repeated administrations (inhalations), reference [7]; cited from earlier work
[6] = guinea pigs, neuraminidase aerosol day one, 500 mg/kg oral on days one to three, 0.5M citric acid challenge day four

CC(=O)N[C@@H]1C(O)O[C@H](CO)[C@@H](O)[C@@H]1O (stereo partly drawn) [Compound (1), N-acetyl-D-mannosamine]
Tolerance (Balb-C mice [1]; 2 g/Kg intraperitoneal dose): well tolerated
Tolerance (Balb-C mice [1]; 5 g/Kg oral dose): well tolerated
Subchronic toxicity (Balb-C mice [2]; 0.5 g/Kg/day×30 days intraperitoneal dose): non-toxic
Subchronic toxicity (Balb-C mice [2]; 1 g/Kg/day×30 days oral dose): non-toxic
Restoration of respiratory tract damages caused by neuraminidase (male Hartley guinea pigs): could restore the respiratory tract damages caused by neuraminidase
Restoration of respiratory tract damages caused by neuraminidase (male Hartley guinea pigs; listed as compound (1)): helped to restore the damages caused by neuraminidase
Cough frequency (in 15 minutes) (male Hartley guinea pigs; [6]): 16 ± 2.2
Time (second) to the 1st nose rubs (male Hartley guinea pigs; [6]): 49 ± 6.5 s
Time (seconds) to the 1st cough (male Hartley guinea pigs; [6]): 85 ± 15 s
Time (seconds) to the 2nd cough (male Hartley guinea pigs; [6]): 137 ± 31 s
Time (seconds) to the 3rd cough (male Hartley guinea pigs; [6]): 220 ± 10 s
Metabolism after oral administration [3]: rapidly metabolized into glucose

CC(=O)N[C@H]1[C@H]([C@H](O)[C@H](O)CO)OC(O)(C(=O)[O-])C[C@@H]1O.[Na+] (stereo partly shown) [Compound (2), N-acetylneuraminic acid sodium salt]
Tolerance (Balb-C mice [1]; 2 g/Kg intraperitoneal dose): well tolerated
Tolerance (Balb-C mice [1]; 5 g/Kg oral dose): well tolerated
Restoration of respiratory tract damages caused by neuraminidase (male Hartley guinea pigs; sodium salt): could restore the respiratory tract damages caused by neuraminidase

CC(=O)NC1C(OC(C)=O)OC(COC(C)=O)C(OC(C)=O)C1OC(C)=O (stereo not shown) [Compound (7)]
Cell viability ([4]; compound 0.003 μg/ml): 102% ± 0.62
Cell viability ([4]; compound 0.012 μg/ml): 105% ± 1.83
Cell viability ([4]; compound 0.05 μg/ml): 128% ± 1.98
Cell viability ([4]; compound 0.19 μg/ml): 105% ± 2.01
Cell viability ([4]; compound 0.77 μg/ml): 112% ± 1.29
Cell viability ([4]; compound 3.1 μg/ml): 103% ± 1.14
Cell viability ([4]; compound 12.5 μg/ml): 134% ± 0.81
Cell viability ([4]; compound 50 μg/ml): 73% ± 2.18
Cell viability ([5]; compound 0.003 μg/ml): 85% ± 2.71
Cell viability ([5]; compound 0.012 μg/ml): 103% ± 4.70
Cell viability ([5]; compound 0.05 μg/ml): 104% ± 5.85
Cell viability ([5]; compound 0.19 μg/ml): 100% ± 0.66
Cell viability ([5]; compound 0.77 μg/ml): 99% ± 1.93
Cell viability ([5]; compound 3.1 μg/ml): 98% ± 5.65
Cell viability ([5]; compound 12.5 μg/ml): 117% ± 4.12
Cell viability ([5]; compound 50 μg/ml): 54% ± 0.98

CC(=O)NC1C(O)OC(COC(C)=O)C(OC(C)=O)C1OC(C)=O (stereo not shown) [Compound (8)]
Cell viability ([4]; compound 0.003 μg/ml): 125% ± 8.51
Cell viability ([4]; compound 0.05 μg/ml): 109% ± 1.16
Cell viability ([4]; compound 0.19 μg/ml): 115% ± 3.52
Cell viability ([4]; compound 0.77 μg/ml): 103% ± 3.21
Cell viability ([4]; compound 3.1 μg/ml): 109% ± 2.79
Cell viability ([4]; compound 12.5 μg/ml): 104% ± 1.95
Cell viability ([4]; compound 50 μg/ml): 91% ± 3.36
Cell viability ([5]; compound 0.003 μg/ml): 129% ± 1.70
Cell viability ([5]; compound 0.012 μg/ml): 118% ± 3.19
Cell viability ([5]; compound 0.05 μg/ml): 93% ± 1.38
Cell viability ([5]; compound 0.19 μg/ml): 96% ± 1.21
Cell viability ([5]; compound 0.77 μg/ml): 133% ± 2.09
Cell viability ([5]; compound 3.1 μg/ml): 111% ± 2.44
Cell viability ([5]; compound 12.5 μg/ml): 81% ± 0.60
Cell viability ([5]; compound 50 μg/ml): 42% ± 1.55

CC(=O)NC1C(O)OC(CO)C(O)C1O (stereo not shown) [Compound (9)]
Cell viability ([4]; compound 0.19 μg/ml): 121% ± 2.42
Cell viability ([4]; compound 0.77 μg/ml): 120% ± 3.14
Cell viability ([4]; compound 3.1 μg/ml): 115% ± 3.17
Cell viability ([4]; compound 12.5 μg/ml): 119% ± 3.04
Cell viability ([4]; compound 50 μg/ml): 122% ± 3.21
Cell viability ([4]; high concentration 78.1 μg/ml): 100% ± 2.92
Cell viability ([4]; high concentration 312.5 μg/ml): 90% ± 3.28
Cell viability ([4]; high concentration 1.25 mg/ml): 96% ± 3.16
Cell viability ([4]; high concentration 5 mg/ml): 83% ± 2.85
Cell viability ([5]; compound 0.19 μg/ml): 107% ± 3.41
Cell viability ([5]; compound 0.77 μg/ml): 107% ± 1.26
Cell viability ([5]; compound 3.1 μg/ml): 108% ± 3.24
Cell viability ([5]; compound 12.5 μg/ml): 106% ± 3.49
Cell viability ([5]; compound 50 μg/ml): 106% ± 2.52
Cell viability ([5]; high concentration 78.1 μg/ml): 125% ± 3.23
Cell viability ([5]; high concentration 312.5 μg/ml): 95% ± 2.85
Cell viability ([5]; high concentration 1.25 mg/ml): 96% ± 2.42
Cell viability ([5]; high concentration 5 mg/ml): 76% ± 2.71

CC(=O)N[C@H]1[C@H]([C@H](O)[C@H](O)CO)OC(O)(C(=O)O)C[C@@H]1O (stereo partly shown) [N-acetylneuraminic acid]
Protection against the impairment of the mucocilliary transport (mucocilliary transport): dose-dependently protected
Prevention of inflammatory changes caused by long term exposure of SO2 (rabbits): remarkably prevented the inflammatory changes

OC[C@H]1O[C@@H](O[C@H]2[C@H](O)[C@@H](O)C(O)O[C@@H]2CO)[C@H](O)[C@@H](O)[C@H]1O (stereo partly shown) [lactose, reference compound]
Protection against the impairment of the mucocilliary transport (mucocilliary transport): not
